Results from US20190083420A1, “METHODS OF USING (2R, 6R)-HYDROXYN[…] (2S, 6S)-HYDROXYN[…] THE TREATMENT OF DEPRESSION, ANXIETY, ANHEDONIA, FATIGUE, SUICIDAL IDEATION, AND POST TRAUMATIC STRESS DISORDERS” (The Uinited States of America, as represented by the …, priority 2016, published 2019).
Entries after “also recorded” stand apart in the source; their conditions may differ.

Tests used:
male CD-1 mice [1] = test: Forced-swim test (FST); assay type: in vivo; conditions: for antidepressant effect in the FST (immobility time): i.p.
Source text: (§1) Male CD-1 mice (8-10 weeks old, Charles River Laboratories, Mass., USA) were housed in groups of four-five per cage with a constant 12-hour light/dark cycle (lights on/off at 07:00/19:00). Food and water were available ad libitum. Mice acclimatized to the new environment for seven days prior to the start of the experiments. For the whole-cell NMDA current electrophysiological recordings, male Sprague-Dawley rats (housed three per cage; Charles River, Wilmington, Mass.) were used. EPSC recording were done from rats at postnatal day 24-25. All experimental procedures were approved by the University of Maryland, Baltimore Animal Care and Use Committee and were conducted in full accordance with the National Institutes of Health Guide for the Care and Use of Laboratory Animals.
Mice were tested in the FST 1 hour and/or 24 hours post-injection. During the FST, mice were subjected to a 6-min swim session in clear Plexiglass cylinders (30 cm height×20 cm diameter) filled with 15 cm of water (23±1° C.). The FST was performed in normal light conditions (800 Lux). Sessions were recorded using a digital video-camera. Immobility time, defined as passive floating with no additional activity other than that necessary to keep the animal's head above water, was scored for the last 4 min of the 6-min test by a trained observer blind to the treatment.
All drugs were dissolved in 0.9% saline, and administered intraperitoneally (i.p.) in a volume of 7.5 ml/kg of body mass. Corticosterone (4-pregnen-11β, 21-diol-3, 20-dione 21-hemisuccinate; Steraloids, Newport, R.I., USA) was dissolved in tap water. For the electrophysiology recordings, test drugs were diluted in artificial cerebrospinal fluid (AC SF).

mice [2] = test: Quantitative EEG, cortical oscillation power; assay type: in vivo; conditions: NBQX before (2R,6R)-HNK
Experimental: EEG experiments were performed according to Raver et al., (Neuropsychopharmacology, 38, 2338-2347 (2013)) with minor modifications. Mice were anesthetized with isoflurane and kept under anesthesia throughout the surgery. An F20-EET radio-telemetric transmitter (Data Sciences International, Minneapolis, Minn.) was implanted subcutaneously and its leads implanted over the dura above the frontal cortex (1.7 mm anterior to bregma) and the cerebellum (6.4 mm posterior to bregma). Animals recovered from surgery for 7 days before recordings.
Mice were singly housed and acclimated to the behavioral room for 24 hours prior to EEG recordings. EEGs were recorded using the Dataquest A.R.T. acquisition system (Data Sciences International) with frontal EEG recordings referenced to the cerebellum. Baseline EEG (10 min) recordings were followed by an i.p. injection of saline, ketamine (10 mg/kg) or (2R,6R)-HNK (10 mg/kg) and 40 min of post-injection recordings.
ECoGs were analyzed using custom-written MATLAB scripts (Version 2012a, Mathworks, Mass.) and the mtspecgramc routine in the Chronux Toolbox (http://chronux.org; Mitra and Bokil, 2008). Oscillation power in each bandwidth (δ=1-3 Hz; θ=4-7 Hz; α=8-12 Hz; β=13-29 Hz; γ=30-80 Hz) was computed in 10 min bins from spectrograms for each animal.

mice [3] = test: Drug discrimination in ketamine-trained mice; assay type: in vivo; conditions: for ketamine-associated discriminative stimulus: mice trained to discriminate ketamine (10 mg/kg) from saline
Experimental: Mice were food restricted until they reached 85% of their initial body weight and were maintained at 85% throughout the duration of the experiment Animals were trained to lever press for food (20 mg sucrose pellets; TestDiet, St. Luis, Mo., USA) in standard two lever-operant conditioning chambers (Coulbourn Instruments, Whitehall, Pa., USA), under a fixed-ratio 5 of reinforcement (FR5) in daily 30-min sessions. When stable responding was succeeded over 3 consecutive sessions (average of 40 training sessions), mice were trained to discriminate ketamine (10 mg/kg) from saline (7.5 ml/kg) under a double alternation schedule (e.g., ketamine, ketamine, saline, saline). The subjects received either ketamine (10 mg/kg; i.p.) or saline (7.5 ml/kg) 15 minutes prior to the start of the 30-minute session. […] Drug discrimination test sessions were conducted when mice reached the following criteria: (1) first FR5 completed on the correct lever, and (2)≥85% correct lever responding over the entire session. During the test sessions mice were administered with saline (7.5 ml/kg), ketamine (10 mg/kg), phencyclidine (PCP; 3 mg/kg) or (2R,6R)-HNK (10 and 50 mg/kg). […] Recording of responses and pellet delivery were controlled and calculated by an automated computer system (Graphic State v3.1; Coulbourn Instruments, Whitehall, Pa., USA).

[4] = Tissue distribution of ketamine and metabolites (plasma and brain levels)
Experimental: Mice were euthanized by a 30-sec exposure to 3% isoflurane and decapitated at 10, 30, 60, 240 or 480 minutes following drug administration. Trunk blood was collected in EDTA-containing tubes and centrifuged at 8000 rpm for 6 min (4° C.). Plasma was collected and stored at −80° C. until analysis. Whole brains were simultaneously collected, rinsed with phosphate-buffered saline, immediately frozen in dry ice and stored at −80° C. until analysis.
The concentrations of ketamine and its metabolites in plasma and brain tissue were determined by achiral liquid chromatography-tandem mass spectrometry. For plasma samples, the calibration standards for (R,S)-ketamine, (R,S)-norketamine, (2R,6R;2S,6S)-HNK and (R,S)-DHNK ranged from 10,000 ng/ml to 19 ng/ml. The quantification of (R,S)-ketamine, (R,S)-norketamine, (R,S)-DHNK, and the HNK stereoisomers was accomplished by calculating area ratios using D4-ketamine (10 μl of 10 μg/ml solution) as the internal standard. Whole brains were suspended in 990 μl of water:methanol (3:2, v/v), D4-ketamine (10 μl of 10 μg/ml) added and the resulting mixture homogenized on ice with a polytron homogenizer and centrifuged at 21,000×g for 30 min. The supernatant was collected and processed using 1 ml Oasis HLB solid phase extraction cartridges (Waters Corp., Waltham, Mass.). The cartridges were preconditioned with 1 ml of methanol, followed by 1 ml of water and then 1 ml ammonium acetate [10 mM, pH 9.5]. The supernatants were added to the cartridges, followed by 1 ml of water and the compounds were eluted with 1 ml of methanol. The eluent was transferred to an autosampler vial for analysis. QC standards for the analysis of (R,S)-ketamine, (R,S)-norketamine, (R,S)-DHNK and (2R,6R;2S,6S)-HNK ranged from 10,000 ng/ml to 19 ng/ml, and quantification was accomplished using D4-(R,S)-ketamine as the internal standard. QC standards were prepared daily by adding 10 μl of the appropriate standard solution and 10 μl of internal standard solution (100 ng/ml) to methanol.

male CD-1 mice [5] = test: Learned helplessness (LH); assay type: in vivo; conditions: single injection, test 24 hours after administration
Source text: as §1
The LH paradigm consisted of three different phases, i.e., inescapable shock training, LH screening, and the LH test. For the inescapable shock portion of the test (Day 1), the animals were placed in one side of two-chambered shuttle boxes (34 cm height×37 cm width×18 cm depth; Coulbourn Instruments, PA, USA), with the door between the chambers closed. Following a five-min adaptation period, 120 inescapable foot-shocks (0.45 mA, 15 sec duration, randomized average inter-shock interval of 45 sec) were delivered through the grid floor. During the screening session (Day 2), the mice were placed in one of the two chambers of the apparatus for 5 min. A shock (0.45 mA) was then delivered, and the door between the two chambers was raised simultaneously. Crossing over into the second chamber terminated the shock. […] A total of 30 screening trials of escapable shocks were presented to each mouse with an average of 30 sec delay between each trial. Mice that developed helplessness behavior (>5 escape failures during the last 10 screening shocks) were administered with the respective drug 24 hours following screening (Day 3). During the LH test phase (Day 4), the animals were placed in the shuttle boxes and, after a 5-min adaptation period, a 0.45 mA shock was delivered concomitantly with door opening for the first five trials, followed by a 2-sec delay for the next 40 trials. Crossing over to the second chamber terminated the shock. […] A total of 45 trials of escapable shock were presented to each mouse with 30 sec inter-trial intervals. The number of escape failures was recorded for each mouse.

mice [6] = test: Open field test (locomotor activity); assay type: in vivo; conditions: 1 hour after i.p. drug, Hydrochloride
Experimental: Mice were placed into individual open-field arenas (50 cm length×50 cm width×38 cm height; San Diego Instruments, San Diego, Calif., USA) for a 60-min habituation period. Mice were then injected with the respective drug and assessed for locomotor activity for another 60 min. Distance travelled was analyzed using TopScan v2.0 (CleverSys, Inc, Reston, Va., USA).

Male C57BL/6J mice = test: Chronic social defeat stress and social interaction/avoidance test; assay type: in vivo; conditions: single i.p. injection, re-test 24 hours following treatment
Experimental: Male C57BL/6J mice underwent a 10-day chronic social defeat stress paradigm. Briefly, experimental mice were introduced to the home cage (43 cm length×11 cm width×20 cm height) of a resident aggressive retired CD-1 breeder, prescreened for aggressive behaviors, for 10 min. Following this physical attack phase, mice were transferred and housed in the opposite side of the resident's cage divided by a Plexiglas perforated divider, in order to maintain continuous sensory contact. This process was repeated for 10 days. Experimental mice were introduced to a novel aggressive CD-1 mouse each day. On day 11, test mice were screened for susceptibility in a social interaction/avoidance choice test. The social interaction apparatus consisted of a rectangular three-chambered box (mouse conditioned-place preference chamber; Stoelting Co., Wood Dale, Ill., USA), see FIG. 7b) comprised of two equal sized end-chambers and a smaller central chamber. The social interaction/avoidance choice test consisted of two 5-min phases. During the habituation phase, mice explored the empty apparatus. During the test phase, two small wire cages (Galaxy Cup, Spectrum Diversified Designs, Inc., Streetsboro, Ohio, USA), one containing a “stranger” CD-1 mouse and the other one empty, were placed in the far corners of each chamber. The time spent interacting (nose within close proximity of the cage) with the “stranger” mouse versus the empty cage was analysed using TopScan video tracking software (CleverSys, Reston, Va.). Locomotor activity (total distance moved over 5 min) and number of total crosses into and out of the central chamber were also measured. The social interaction ratio was calculated by dividing the time spent interacting with the “stranger” by the time spent with the empty cage. Mice having a social interaction ratio higher than 1.0 were considered resilient and mice with a social interaction ratio lower than 1.0 were considered susceptible. On day 13 resilient and susceptible mice received an i.p. injection of either saline, (R,S)-KET (20 mg/kg; chosen based upon dose previously effective in C57BL/6J mice^31), MK-801 (0.1 mg/kg) or (2R,6R)-HNK (20 mg/kg). Mice were re-tested for social interaction/avoidance on […] (24 hours following treatment).

[7] = 24 hours post-injection (sustained)

NS(=O)(=O)c1cccc2c1c([N+](=O)[O-])cc1[nH]c(=O)c(=O)[nH]c12 [NBQX, 2,3-dihydroxy-6-nitro-7-sulfamoyl-benzo[f]quinoxaline-2,3-dione]
effect of NBQX pre-treatment on antidepressant-like actions in the FST (male CD-1 mice [1]; NBQX 10 minutes prior to (R,S)-ketamine or (2R,6R)-HNK, FST 1 hour or 24 hours later): prevented their antidepressant-like actions; also recorded: prevented both the 1- and 24-hour antidepressant effects of (2R,6R)-HNK | effect of NBQX given before the 24-hour FST on antidepressant effects (male CD-1 mice [1]; NBQX 30 min prior to the 24-hour FST (23.5 hours after ketamine or (2R,6R)-HNK)): prevented the antidepressant actions of both ketamine and (2R,6R)-HNK; also recorded: prevented the antidepressant effects of both (R,S)-KET and (2R,6R)-HNK | effect of NBQX pre-treatment on (2R,6R)-HNK-induced increases in gamma oscillations (mice [2]): prevented (2R,6R)-HNK-induced increases in gamma power; also recorded: prevented (2R,6R)-HNK-induced increases of gamma oscillations | effect of NBQX pre-treatment on locomotor activity and alpha, beta, delta, theta oscillations (mice [2]): did not change

c1ccc(C2(N3CCCCC3)CCCCC2)cc1 [phencyclidine, reference compound]
response rate of overall lever pressing per sec (mice [3]; drug discrimination paradigm): not changed | ketamine-associated discriminative stimulus (mice [3]): did | ketamine-associated discriminative stimulus (mice [3]; listed as PCP): produced ketamine-like discriminative properties

NC1(c2ccccc2Cl)CCCCC1=O (racemic) [norketamine, (R,S)-norketamine]
brain levels following ketamine administration, female mice compared to males ([4]; brain): equivalent levels

Cl.[2H]C1([2H])CCCC(NC)(c2ccccc2Cl)C1=O (centres unmarked) [6,6-dideuteroketamine, 2-(2-Chlorophenyl)-6,6-Dideutero-2-(Methylamino)Cyclohexanone Hydrochloride]
antidepressant effect in the FST (immobility time) (male CD-1 mice [1]; [7]): did not induce antidepressant actions | antidepressant-like effect in learned helplessness (escape failures) (male CD-1 mice [5]): did not induce antidepressant actions | locomotor activity in the open-field test (mice [6]): did not change or NMDA-mediated hyperlocomotion | locomotor activity in the open-field test (mice [6]; listed as (R,S)-6,6-dideuteroketamine): equally potent in inducing a hyper-locomotor response | levels of ketamine in the brain ([4]; 6,6-dideuteroketamine compared to ketamine): without changes to the levels of ketamine in the brain

C[C@]12N[C@H](Cc3ccccc31)c1ccccc12 [MK-801]
antidepressant effect in the FST (immobility time) (male CD-1 mice [1]; 1 hour post-injection (acute)): antidepressant responses of both ketamine and MK-801 observed acutely | antidepressant effect in the FST (immobility time) (male CD-1 mice [1]; [7]): does not exert sustained (24-hour) antidepressant-like effects | reversal of social interaction deficits / social avoidance induced by chronic social defeat stress (Male C57BL/6J mice): does not exert sustained (24-hour) antidepressant-like effects in the FST, or reverse social interaction deficits

CNCCCN1c2ccccc2CCc2ccccc21 [desipramine]
antidepressant effect in the FST (immobility time) (male CD-1 mice [1]; 1- and 24-hours post-injection, times not separated): only decreased immobility time 1 hour post-injection
